Each structure is given as a SMILES string. Entries after “also recorded” stand apart in the source; their conditions may differ.

Data set [1] concerns A2780 xenografts. As to the kind of experiment: Naked DNA experiment: CMV-ntr plasmid and CB1954 in xenograft tumours. The class given is in vivo, mice. Conditions: single agent: CMV-ntr 0.2 mg DNA intratumoural Day 0, or CB1954 80 mg/kg intra-peritoneal Day 2. Here is the method:
In order to check the alterations in tumour growth are due to the virus itself and not a result of the CMV-ntr plasmid DNA that had been introduced to the HSV 1716 virus, an experiment was set up looking at the effect of the CMV-ntr plasmid DNA alone and in combination with the prodrug CB1954.
Mice were randomised into treatment groups of 6 animals each when tumour diameters are approximately 5 mm (this is Day 0). […] Two groups of mice were administered CMV-ntr plasmid by direct intratumoural injection at a dose of 0.2 mg DNA per injection. One of these groups was then administered with a single dose of 80 mg/kg of CB1954 on Day 2 by intra-peritoneal injection. […] Animals were weighed daily (FIG. 23) and daily caliper measurements performed until the tumour sizes were in the region of 20 mm by 20 mm. Tumour volumes were estimated from these measurements (volume=[…]) (FIG. 24). In addition any toxicity from these administered agents was determined.

A short description of data set [2]: Scheduling experiment: tolerability of injections. It counts as in vivo, athymic nude mice. As to conditions: 80 mg/kg intra-peritoneal in 10% acetone/peanut oil. The method, then:
(§1) The treatment groups were administered with a single direct intratumoural injection of the virus and dose determined for that group. The virus was diluted PBS+10% serum. ‘No virus’ control groups received an intratumoural injection of 100 μl of PBS+10% serum. This day was designated as Experimental Day 0.
Some tumours bleed slightly after injection but not to a great degree. […] In all the tumours that bleed slightly, the following day the healing process had begun and within 3-5 days there was little evidence of any puncture wound on any tumour.
(§2) Injections of CB1954 were given to the appropriate groups at days 2, 10 and 15. A dose of 80 mg/kg—the equivalent of approx. 2 mg per mouse—was given. The powdered form of the CB1954 drug (from Sigma) was dissolved in acetone to 10% of the final volume (10 μl per 2 mg). The volume was then made up to 2 mg CB1954 in 100 μl using peanut oil. A syringe was used to mix the drug as peanut oil is thick and viscous. The drug was made up fresh every time.
(§3) The appropriate groups were then injected intra-peritoneal with this solution. Control groups which were not receiving drug were injected intra-peritoneal with a 100 μl solution of 10% acetone in peanut oil.

In data set [3] the test system is C8161 cells. The class given is cell-based, human. Conditions: 50 μM CB1954 alone.
Data set [4] relates to A2780 xenograft. As to the kind of experiment: Scheduling experiment: tumour volume after virus and CB1954. It counts as in vivo, athymic nude mice. Here is the method: Mice were randomized into treatment groups (treatment regimes shown in Table 2) of 3 animals when tumour diameters were approximately 5 mm (tumour volume […]).
as §1, §2, §3

The subject of data set [5] is confluent 3T6 cells. The class given is cell-based. As to conditions: 50 μM CB1954 alone.

In the case of `NC(=O)c1cc(N2CC2)c([N+](=O)[O-])cc1[N+](=O)[O-]` [CB1954], the “anti-tumour activity as determined by tumour regression” value in data set [1] was “neither the CMV-ntr alone, CB1954 alone or the combination of both CMV-ntr and CB1954, has any anti-tumour activity”. For the same compound, in data set [2], the “body weight after intra-peritoneal injection” value was “did not lose any body weight” and the “swelling or irritation at the site of injection” value is “No swelling or irritation”. The cell death result in data set [3] is “no effect”. In data set [4] (CB1954 alone, 80 mg/kg intra-peritoneal, no virus (groups 5, 6, 7, 13)), the “effect on tumour growth” value is listed as “little effect on tumour growth”. Further, the “tumour growth delay by timing of prodrug” value in data set [4] (CB1954 given Day 2 post viral injection versus Day 10) is recorded as “tumour growth was not delayed as much as if the drug was given at a later date”. In data set [5], the cell death result is listed as “no effect; also recorded: does not result in any significant cell death”.

For the origin of these results see patent US20070110720A1, “Vectors, mutant viruses and methods for generating mutant viruses” (priority 2003, published 2007).
